Results: patent US20250275537A1, “CARBOXAMIDE APYRASE INHIBITORS” (Texas Crop Science, Inc., priority 2024, published 2025)

Tests used:
[1] = system: Microdochium nivale; test: In vitro assessment of combination activity with fungicides (Method 2), Microdochium nivale; type: cell-based; conditions: in combination with azoxystrobin; visual % control on agar
Protocol: (§1) Selected compounds are assessed in combination with fungicides against a range of commercially important plant pathogenic fungi.
(§2) The test is conducted as follows. A fungicide is applied to a fungal plant pathogen at a rate slightly below that at which it gave any control, in combination with a suitable dose of the test compound. The test compound is recorded as active if control of the pathogen is observed.
(§3) In more detail, the test is conducted as follows. For each combination of fungicide, pathogen and test compound, the following wells are used. Well 1 contains a fungal pathogen growing on agar, and a fungicide at a rate just below that at which it gives any control of the pathogen. Well 2 is the same as Well 1, except that the test compound is also added at Rate 1. Well 3 is the same as Well 2, except that the test compound is added at Rate 2, where Rate 2 was higher than Rate 1. Finally, as a benchmark. Well 4 is the same as Well 1, except that it contains the fungicide at a higher rate, at which it gives partial control of the pathogen. Each of the Wells 1 to 4 are run in duplicate, giving a total of 8 wells for each combination of fungicide, pathogen and test compound. For each well, after a suitable period of incubation, a visual assessment of the % control of the pathogen by the fungicide is made. […]

[2] = system: strain of Zymoseptoria tritici with a reduced susceptibility to strobilurin fungicides; test: In vitro assessment of combination activity with fungicides (Method 2), Z. tritici strobilurin-reduced-susceptibility strain; type: cell-based; conditions: any fungicide (azoxystrobin, fluxapyroxad, desthio prothioconazole)
Protocol: as §1, §2, §3

[3] = system: strain of Zymoseptoria tritici with a reduced susceptibility to SDHI fungicides; test: In vitro assessment of combination activity with fungicides (Method 2), Z. tritici SDHI-reduced-susceptibility strain; type: cell-based; conditions: any fungicide (azoxystrobin, fluxapyroxad, desthio prothioconazole)
Protocol: as §1, §2, §3

[4] = system: apyrase; test: Apyrase inhibition assay (Method 1); type: biochemical; conditions: inhibitor conc at 1 mM stock, 10 μl per well; 1 hr room temperature; rounded average of at least two assay results
Protocol: Apyrase inhibitors useful as enhancers of pesticidal activity are assessed using an in vitro assay. The method of Windsor, Bio Techniques 33:1024-1030 (November 2002) was used as follows
96 well plates were used for the assay: (Greiner bio-one: REF-655901-96 well, PS, F-bottom, Clear, Non-binding)
• Reaction Buffer: 60 mM Hepes, 3 mM MgCl2, 3 mM CaCl2 and 3 mM ATP (pH 6.5) • Development Buffer A: 2% aqueous ammonium molybdate • Development Buffer B: 11% ascorbic acid in 37.5% TCA in water • Stop buffer C: 2% trisodium citrate in 2% acetic acid solution in water • Add 100 μl of reaction buffer to each well. • Add 10 μl of DMSO (control) or inhibitor/compound or compounds such as N1915 or orthovanadate to each well. (use inhibitor conc at 1 mM; orthovanadate at 2 mM and N1915 at 1 mM) • Add 10 μl of apyrase (concentration based on optimization —Dilute 1 U/μl enzyme to different concentrations such as 0.1U, 0.05U, 0.0025, 0.001U, 0.0005U—to find a good range) • Incubate plate at room temperature for 1 hr • Mix development buffer A and B in the ratio of 1:1.5 (just before use). • Add 50 ul of A:B mix in each well (incubate for 2 mins) • Add 50 ul of C in each well • Measure/Read Absorbance of plate @630 nm
Inhibitory data for the apyrase assay described above are provided for selected compounds in Table 3. In Table 3, D indicates inhibition of <10%.
With reference to Table 3, percent inhibition of apyrase is reported as the rounded average of at least two assay results.

[5] = system: Brown Rust (Puccinia recondita) on wheat; test: Greenhouse crop test: Brown Rust on wheat in combination with commercial fungicides (Method 3); type: in vivo; conditions: evaluated at fourteen days
Protocol: In this method, exemplary compounds were evaluated for their ability to control Brown Rust (Puccinia recondita) on wheat, in a controlled greenhouse environment in combination with one of four fungicides, Amistar, Imtrex, Proline or Balaya. In these studies, JB Diego wheat plants were used. Seeds were sown in 9 cm diameter pots to a depth of 1 to 2 cm using Petersfield potting compost (75% medium grade peat, 12% screened sterilized loam, 3% medium grade vermiculite, 10% grit (5 mm screened, lime free), 1.5 kg PG mix per m3, lime to pH5.5-6.0 and wetting agent (Vitax Ultrawet 200 ml per m3) and germinated/grown at 23 C under a 16 h day/8 h night light regime. Plants were treated two to three weeks after sowing when they were at the BBCH 11 growth stage (first pair of true leaves (unifoliate) unfolded). Plants were inoculated with the Puccinia triticina (Brown rust on wheat plants) 24 hours after treatment. A track sprayer was used to treat the plants with the mixture of commercial fungicide and test compound using a water volume of 200 L/ha. […] Each plant was evaluated at fourteen days (once the disease symptoms were fully expressed) for % control of the disease. […] Also, each commercial fungicide was tested on its own as a part of each treatment, this being benchmark against which the experimental compounds were evaluated. […]

[6] = system: Amaranthus retroflexus (pigweed); test: Enhancement of herbicide activity: pre-emergence Amaranthus kill with metribuzin (Method 4); type: in vivo; conditions: enhancer at 100 g/ha; for enhancement of metribuzin herbicidal activity: at seven and fourteen days
Source text: Small amounts of acetone were used to aid solubility. The pots were watered immediately after sowing and treatment and then allowed to stand in a glasshouse. Assessment of kill was made seven and fourteen days after treatment. The test included four replicates for each treatment and the control.

[7] = Assessed 7 DAT, metribuzin rate 50 g/ha
[8] = Assessed 7 DAT, metribuzin rate 100 g/ha
[9] = Assessed 7 DAT, metribuzin rate 200 g/ha
[10] = Assessed 14 DAT, metribuzin rate 50 g/ha
[11] = Assessed 14 DAT, metribuzin rate 100 g/ha
[12] = Assessed 14 DAT, metribuzin rate 200 g/ha

O=C(Nc1cccc([N+](=O)[O-])c1)c1cccc(S(=O)(=O)Nc2ccc(Br)cc2)c1 [Roux Compound 13]
enhancement of fungicide activity (combination activity) [1]: enhancing the activity of azoxystrobin | enhancement of fungicide activity (combination activity) [2]: failing to enhance activity of any fungicide | enhancement of fungicide activity (combination activity) [3]: failing to enhance activity of any fungicide

O=C(c1ccc(C(=O)N2CCc3ccccc32)cc1)N1CCc2ccccc21 [Compound I-66, 1,4-phenylenebis(indolin-1-ylmethanone)]
% Inhibition of Apyrase [4]: A (A indicates inhibition above 30%) | additional Brown Rust disease control in combination with Amistar over Amistar alone ([5]; Amistar 0.04 L/ha): greater than 20%

COCc1cc(F)ccc1NC(=O)c1cccc(C(=O)Nc2ccc(F)cc2COC)c1 [Compound I-63, N^1,N^3-bis(4-fluoro-2-(methoxymethyl)phenyl)isophthalamide]
Pre-Emergence Amaranthus Kill Percentage [6, 7]: 2.0% | Pre-Emergence Amaranthus Kill Percentage [6, 8]: 34.0% | Pre-Emergence Amaranthus Kill Percentage [6, 9]: 96.3% | Pre-Emergence Amaranthus Kill Percentage [6, 10]: 4.1% | Pre-Emergence Amaranthus Kill Percentage [6, 11]: 34.0% | Pre-Emergence Amaranthus Kill Percentage [6, 12]: 98.2% | enhancement of metribuzin herbicidal activity [6]: significant enhancement | % Inhibition of Apyrase [4]: A (A indicates inhibition above 30%)

O=C(Nc1ccccc1Cl)c1ccccc1C(=O)Nc1ccccc1Cl [Compound I-14, N^1,N^2-bis(2-chloropheny)phthalamide]
Pre-Emergence Amaranthus Kill Percentage [6, 7]: 21.3% | Pre-Emergence Amaranthus Kill Percentage [6, 8]: 93.9% | Pre-Emergence Amaranthus Kill Percentage [6, 9]: 98.0% | Pre-Emergence Amaranthus Kill Percentage [6, 10]: 32.7% | Pre-Emergence Amaranthus Kill Percentage [6, 11]: 94.0% | Pre-Emergence Amaranthus Kill Percentage [6, 12]: 100.0% | enhancement of metribuzin herbicidal activity [6]: significant enhancement | % Inhibition of Apyrase [4]: A (A indicates inhibition above 30%)

CSc1nnc(C(C)(C)C)c(=O)n1N [metribuzin, reference compound]
Pre-Emergence Amaranthus Kill Percentage [6, 7]: 0.0%

CN(C(=O)c1cccc(C(=O)Nc2cc(Br)ccc2F)c1)c1ccccc1 [Compound I-65, N^1-(5-bromo-2-fluorophenyl)-N3-methyl-N^3-phenylisophthalamide]
% Inhibition of Apyrase [4]: D (D indicates inhibition of <10%)

O=C(Nc1cccc(N2CCCC2)c1)c1ccc2c(c1)C(=O)NC2=O [Compound I-10, 1,3-dioxo-N-(3-(pyrrolidin-1-yl)phenyl)isoindoline-5-carboxamide]
% Inhibition of Apyrase [4]: B (B indicates inhibition of from 20% to 30%)

O=C(Nc1ccccc1)c1cccc(C(=O)Nc2cccc(-c3nnn[nH]3)c2)c1 [Compound I-29, N^1-(3-(1H-tetrazol-5-yl)phenyl)-N^3-phenylisophthalamide]
% Inhibition of Apyrase [4]: C (C indicates inhibition of from 10% to 20%)

COc1cc(NC(=O)c2ccc(C(=O)Nc3cc(OC)cc(OC)c3)cc2)cc(OC)c1 [Compound I-20, N1,N4-bis(3,5-dimethoxyphenyl)terephthalamide]
% Inhibition of Apyrase [4]: C (C indicates inhibition of from 10% to 20%)

Cc1cc2c(cc1NC(=O)c1cccc(C(=O)Nc3ccccc3)c1)OCO2 [Compound I-64, N^1-(6-methylbenzo[d][1,3]dioxol-5-yl)-N^3-phenylisophthalamide]
% Inhibition of Apyrase [4]: B (B indicates inhibition of from 20% to 30%)

O=C(Nc1ccccc1)c1ccc(C(=O)Nc2ccccc2)cc1 [Compound I-3, N^1,N^4-diphenylterephthalamide]
% Inhibition of Apyrase [4]: A (A indicates inhibition above 30%) | additional Brown Rust control in combination with Balaya over Balaya alone ([5]; Balaya 0.25 L/ha): measurable additional Brown Rust control

COCC#CCn1c(=O)c2ccccc2c(=O)n1C [Compound I-31, 2-(4-methoxybut-2-yn-1-yl)-3-methyl-2,3-dihydrophthalazine-1,4-dione]
% Inhibition of Apyrase [4]: C (C indicates inhibition of from 10% to 20%)

O=C(Nc1ccccc1)c1cccc(C(=O)Nc2cc3c(cc2Cl)OCO3)c1 [Compound I-4, N^1-(6-chlorobenzo[d][1,3]dioxol-5-yl)-N3-phenylisophthalamide]
% Inhibition of Apyrase [4]: A (A indicates inhibition above 30%)

O=C1CCCc2ccc(NC(=O)c3ccc4c(c3)C(=O)NCCO4)cc2N1 [Compound I-60, 5-oxo-N-(2-oxo-2,3,4,5-tetrahydro-1H-benzo[b]azepin-8-yl)-2,3,4,5-tetrahydrobenzo[f][1,4]oxazepine-7-carboxamide]
% Inhibition of Apyrase [4]: D (D indicates inhibition of <10%)

O=C1CCCc2cc(NC(=O)c3cccc(C(=O)Nc4ccc5c(c4)CCCC(=O)N5)c3)ccc2N1 [Compound I-36, N^1,N^3-bis(2-oxo-2,3,4,5-tetrahydro-1H-benzo[b]azepin-7-yl)isophthalamide]
% Inhibition of Apyrase [4]: C (C indicates inhibition of from 10% to 20%)

O=C(Nc1ccccc1)c1ccc(C(=O)Nc2cnn(CC3CCCO3)c2)cc1 (stereo not shown) [Compound I-61, N^1-phenyl-N^4-(1-((tetrahydrofuran-2-yl)methyl)-1H-pyrazol-4-yl)terephthalamide]
% Inhibition of Apyrase [4]: D (D indicates inhibition of <10%)
